{"source": "paper PMC6954049", "about": "(Antiviral Research, 2019)", "key": {"[1]": {"assay": "in vitro", "conditions": "human, CC50 (μM) AlamarBlue assay"}, "[2]": {"biological_target": "LCMV MG (Lymphocytic choriomeningitis virus, UniProt P09992+P14240)", "sequence (P09992 whole entry, looked up)": "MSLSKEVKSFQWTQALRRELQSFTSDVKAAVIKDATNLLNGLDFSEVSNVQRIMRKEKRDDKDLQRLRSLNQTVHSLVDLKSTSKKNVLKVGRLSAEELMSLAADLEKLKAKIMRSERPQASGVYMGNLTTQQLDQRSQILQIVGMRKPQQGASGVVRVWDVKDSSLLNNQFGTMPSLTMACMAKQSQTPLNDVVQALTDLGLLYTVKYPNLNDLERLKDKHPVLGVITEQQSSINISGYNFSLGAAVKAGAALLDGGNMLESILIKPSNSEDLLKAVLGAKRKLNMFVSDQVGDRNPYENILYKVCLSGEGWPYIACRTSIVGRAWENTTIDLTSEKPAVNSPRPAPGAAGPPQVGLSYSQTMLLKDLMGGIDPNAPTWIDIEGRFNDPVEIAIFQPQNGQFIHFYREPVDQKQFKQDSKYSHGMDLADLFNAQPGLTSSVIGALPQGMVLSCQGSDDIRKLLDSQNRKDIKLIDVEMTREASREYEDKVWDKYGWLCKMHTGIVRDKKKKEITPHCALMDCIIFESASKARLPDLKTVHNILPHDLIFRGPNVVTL", "sequence (P14240 whole entry, looked up)": "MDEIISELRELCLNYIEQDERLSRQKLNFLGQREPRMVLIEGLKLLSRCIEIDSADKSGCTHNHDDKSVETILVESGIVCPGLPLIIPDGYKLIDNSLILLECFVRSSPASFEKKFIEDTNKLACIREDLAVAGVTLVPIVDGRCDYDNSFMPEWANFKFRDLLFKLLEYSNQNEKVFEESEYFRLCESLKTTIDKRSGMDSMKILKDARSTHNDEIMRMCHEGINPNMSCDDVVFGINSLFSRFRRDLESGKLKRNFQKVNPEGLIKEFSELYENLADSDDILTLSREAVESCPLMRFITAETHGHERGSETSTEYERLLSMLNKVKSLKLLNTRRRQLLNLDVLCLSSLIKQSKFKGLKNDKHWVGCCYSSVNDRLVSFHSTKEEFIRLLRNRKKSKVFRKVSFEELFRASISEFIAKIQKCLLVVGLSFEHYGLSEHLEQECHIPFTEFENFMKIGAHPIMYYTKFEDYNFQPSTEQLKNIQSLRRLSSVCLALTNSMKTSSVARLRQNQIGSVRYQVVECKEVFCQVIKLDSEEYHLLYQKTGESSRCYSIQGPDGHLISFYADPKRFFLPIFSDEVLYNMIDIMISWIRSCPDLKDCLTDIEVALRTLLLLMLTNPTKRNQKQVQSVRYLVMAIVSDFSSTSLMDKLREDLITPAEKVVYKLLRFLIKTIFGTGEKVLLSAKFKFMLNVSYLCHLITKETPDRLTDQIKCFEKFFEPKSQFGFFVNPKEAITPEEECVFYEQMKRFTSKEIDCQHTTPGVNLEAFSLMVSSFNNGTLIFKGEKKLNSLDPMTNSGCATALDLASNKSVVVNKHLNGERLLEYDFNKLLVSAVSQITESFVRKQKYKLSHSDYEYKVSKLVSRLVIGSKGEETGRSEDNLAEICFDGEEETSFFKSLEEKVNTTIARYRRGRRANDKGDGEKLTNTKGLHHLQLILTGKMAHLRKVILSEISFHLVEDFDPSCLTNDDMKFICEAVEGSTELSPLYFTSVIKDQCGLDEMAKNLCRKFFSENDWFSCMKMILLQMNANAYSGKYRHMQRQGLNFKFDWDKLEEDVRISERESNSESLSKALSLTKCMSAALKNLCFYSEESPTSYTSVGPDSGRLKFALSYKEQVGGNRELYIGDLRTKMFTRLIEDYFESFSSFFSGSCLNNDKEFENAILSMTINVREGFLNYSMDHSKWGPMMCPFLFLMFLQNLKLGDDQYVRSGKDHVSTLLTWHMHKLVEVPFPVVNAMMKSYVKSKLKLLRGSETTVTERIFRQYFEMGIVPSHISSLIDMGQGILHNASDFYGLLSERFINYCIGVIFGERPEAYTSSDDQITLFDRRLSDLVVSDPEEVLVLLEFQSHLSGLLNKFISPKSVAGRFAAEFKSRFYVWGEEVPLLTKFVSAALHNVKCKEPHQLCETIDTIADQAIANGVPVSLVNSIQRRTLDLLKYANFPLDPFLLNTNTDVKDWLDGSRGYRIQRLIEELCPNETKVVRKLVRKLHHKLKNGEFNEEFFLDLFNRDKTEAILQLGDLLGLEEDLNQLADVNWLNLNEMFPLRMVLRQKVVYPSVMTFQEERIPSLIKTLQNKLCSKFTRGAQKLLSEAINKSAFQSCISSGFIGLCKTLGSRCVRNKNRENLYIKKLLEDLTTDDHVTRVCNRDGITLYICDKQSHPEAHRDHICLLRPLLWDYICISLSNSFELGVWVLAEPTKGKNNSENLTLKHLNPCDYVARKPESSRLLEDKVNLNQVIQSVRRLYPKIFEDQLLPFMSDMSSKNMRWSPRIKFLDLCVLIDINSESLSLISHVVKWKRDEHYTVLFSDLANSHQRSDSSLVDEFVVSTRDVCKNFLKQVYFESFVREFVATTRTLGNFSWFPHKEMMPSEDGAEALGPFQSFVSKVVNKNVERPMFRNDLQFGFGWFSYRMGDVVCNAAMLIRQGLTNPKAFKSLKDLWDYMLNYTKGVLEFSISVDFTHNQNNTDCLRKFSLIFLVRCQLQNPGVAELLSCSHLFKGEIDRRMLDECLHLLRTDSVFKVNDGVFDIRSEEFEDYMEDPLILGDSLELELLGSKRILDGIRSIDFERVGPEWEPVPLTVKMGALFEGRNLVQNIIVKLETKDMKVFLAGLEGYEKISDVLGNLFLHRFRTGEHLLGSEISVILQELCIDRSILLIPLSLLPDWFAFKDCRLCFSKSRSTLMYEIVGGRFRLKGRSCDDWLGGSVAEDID", "assay_type": "cell-based"}, "[3]": {"tested_on": "LCMV/vRNP cells (HEK293T)"}, "[4]": {"tested_on": "rLCMV/GFP", "assay": "microbe, parasite or virus in culture", "assay_type": "cell-based"}}, "note": "Counter-ions that a name gives are not always drawn."}
{"compound": "S=C(NCc1ccc2c(c1)OCO2)N1CCN(c2ncnc3c2oc2ccccc23)CC1", "note": "[Amuvatinib]", "values": [{"measurement": "CC50", "setting": "[1]", "result": 28, "unit": "µM"}]}
{"compound": "CCCCCC[C@H]1C(=O)O[C@H](C)[C@H](NC(=O)c2cccc(NC=O)c2O)C(=O)O[C@@H](C)[C@@H]1OC(=O)CC(C)C", "note": "[Antimycin A]", "values": [{"measurement": "effect on LCMV MG activity (GFP expression)", "setting": "[2]", "result": "dose-dependent inhibitory effect"}]}
{"compound": "CO/C=C(/C(=O)OC)c1ccccc1Oc1cc(Oc2ccccc2C#N)ncn1", "note": "[Azoxystrobin]", "values": [{"measurement": "CC50", "setting": "[3]", "result": 62.7, "unit": "µM"}]}
{"compound": "COc1ccc(C(O)C(C)Oc2ccc(C3OC(c4ccc(OC(C)C(O)c5ccc(OC)c(OC)c5)c(OC)c4)C(C)C3C)cc2OC)cc1OC", "note": "(stereo not shown) [Manassantin A]", "values": [{"measurement": "CC50", "setting": "[1]", "result": 24.3, "unit": "µM"}, {"measurement": "effect on LCMV MG activity (GFP expression)", "setting": "[2]", "result": "dose-dependent inhibitory effect"}]}
{"compound": "CC[C@@]1([C@H]2O[C@H]([C@H]3O[C@@](O)(CO)[C@H](C)C[C@@H]3C)C[C@H]2C)CC[C@H]([C@@]2(C)CC[C@]3(C[C@H](O)[C@@H](C)[C@@H]([C@H](C)[C@H](OC)[C@@H](C)C(=O)O)O3)O2)O1", "note": "[Monensin sodium salt]", "values": [{"measurement": "CC50", "setting": "[3]", "result": 5.95, "unit": "µM"}]}
{"compound": "CC[C@@H](C(=O)O)[C@@H]1O[C@@H]([C@@H](C)[C@H](O)[C@H](C)C(=O)[C@H](CC)[C@H]2O[C@]3(C=C[C@@H](O)[C@]4(CC[C@@](C)([C@H]5CC[C@](O)(CC)[C@H](C)O5)O4)O3)[C@H](C)C[C@@H]2C)[C@@H](C)C[C@@H]1C", "note": "[Narasin]", "values": [{"measurement": "CC50", "setting": "[1]", "result": 4.44, "unit": "µM"}, {"measurement": "effect on LCMV MG activity (GFP expression)", "setting": "[2]", "result": "dose-dependent inhibitory effect"}]}
{"compound": "O=c1[nH]c2ccccc2n1C1CCN(CCCC(c2ccc(F)cc2)c2ccc(F)cc2)CC1", "note": "[Pimozide]", "values": [{"measurement": "effect on LCMV MG activity (GFP expression)", "setting": "[2]", "result": "dose-dependent inhibitory effect"}]}
{"compound": "C=C(C)[C@H]1Cc2c(ccc3c2O[C@@H]2COc4cc(OC)c(OC)cc4[C@@H]2C3=O)O1", "note": "[Rotenone]", "values": [{"measurement": "EC50", "setting": "[4]; Mammarenavirus choriomeningitidis, A549, 48 h", "result": 0.66, "unit": "µM"}]}
{"compound": "O=C1c2ccccc2-n2c1nc1ccccc1c2=O", "note": "[Tryptanthrin]", "values": [{"measurement": "CC50", "setting": "[1]", "result": 12.2, "unit": "µM"}]}
{"compound": "CC(C)[C@@H]1NC(=O)[C@H](C)OC(=O)[C@@H](C(C)C)NC(=O)[C@@H](C(C)C)OC(=O)[C@H](C(C)C)NC(=O)[C@H](C)OC(=O)[C@@H](C(C)C)NC(=O)[C@@H](C(C)C)OC(=O)[C@H](C(C)C)NC(=O)[C@H](C)OC(=O)[C@@H](C(C)C)NC(=O)[C@@H](C(C)C)OC1=O", "note": "[Valinomycin]", "values": [{"measurement": "CC50", "setting": "[1]", "result": 1.93, "unit": "µM"}]}
{"compound": "PF429242", "values": [{"measurement": "effect on multiplication of live LCMV (rLCMV/GFP)", "setting": "[4]", "result": "inhibited"}]}
